The values that follow are results of earlier work, collected in patent US20150147378A1, “COPOLYMER-XEROGEL NANOCOMPOSITES USEFUL FOR DRUG DELIVERY” (RUTGERS, THE STATE UNIVERSITY OF NEW JERSY, priority 2008, published 2015).

SMILES strings stand for the structures.

As for `CO[C@H]1/C=C/O[C@@]2(C)Oc3c(C)c(O)c4c(O)c(c(/C=N/N5CCN(C)CC5)c(O)c4c3C2=O)NC(=O)/C(C)=C\C=C\[C@H](C)[C@H](O)[C@@H](C)[C@@H](O)[C@@H](C)[C@H](OC(C)=O)[C@@H]1C` [rifampicin], the “octanol/water partition coefficient, log P” value is recorded as 2.72.
